pIC50: −log10 of the molar value. Values after ≈ are worked out from the molar mass of the structure shown. Active and inactive are the calls of the source. The rule behind the calls is not given here.
Tests used:
Aspergillus fumigatus = test: Antifungal activity against Aspergillus fumigatus CGMCC 3.7795 assessed as inhibition of fungal growth by CLSI protocol based microdilution method; assay type: functional
Candida albicans [1] = test: Antifungal activity against Candida albicans assessed as inhibition of fungal growth by CLSI protocol based microdilution method; assay type: functional
[2] = Metabolic stability in mouse liver microsomes assessed as half life; assay type: ADME, Microsome
Candida albicans [3] = test: Antifungal activity against Candida albicans CPCC400616 assessed as inhibition of fungal growth by CLSI protocol based microdilution method; assay type: functional
Candida albicans [4] = test: Antifungal activity against fluconazole-resistant Candida albicans 904 assessed as increase in intracellular fluorescence intensity at 32 ug/ml incubated for 4 hrs by fluorescence inverted microscopic analysis; assay type: functional, organism-based; details: dose 32.0 µg/ml
J774.A1 = test: Cytotoxicity against mouse J774.A1 cells assessed as inhibition of cell growth incubated for 72 hrs by MTT assay; assay type: functional, cell-based; details: J774.A1, 72 h
Candida albicans [5] = test: Antifungal activity against fluconazole-resistant Candida albicans 632 assessed as inhibition of fungal growth by CLSI based microdilution method; assay type: functional
[6] = molecular target: T1, Lanosterol 14-alpha demethylase (Candida albicans (strain SC5314 / ATCC MYA-2876) (Yeast), UniProt P10613); test: Inhibition of CYP51 in Candida albicans SC5314 assessed as reduction in ergosterol content at 0.031 ug/ml incubated for 24 hrs by GC-MS analysis relative to control; details: at 0.031 µg/mL
T1 sequence (P10613 whole entry): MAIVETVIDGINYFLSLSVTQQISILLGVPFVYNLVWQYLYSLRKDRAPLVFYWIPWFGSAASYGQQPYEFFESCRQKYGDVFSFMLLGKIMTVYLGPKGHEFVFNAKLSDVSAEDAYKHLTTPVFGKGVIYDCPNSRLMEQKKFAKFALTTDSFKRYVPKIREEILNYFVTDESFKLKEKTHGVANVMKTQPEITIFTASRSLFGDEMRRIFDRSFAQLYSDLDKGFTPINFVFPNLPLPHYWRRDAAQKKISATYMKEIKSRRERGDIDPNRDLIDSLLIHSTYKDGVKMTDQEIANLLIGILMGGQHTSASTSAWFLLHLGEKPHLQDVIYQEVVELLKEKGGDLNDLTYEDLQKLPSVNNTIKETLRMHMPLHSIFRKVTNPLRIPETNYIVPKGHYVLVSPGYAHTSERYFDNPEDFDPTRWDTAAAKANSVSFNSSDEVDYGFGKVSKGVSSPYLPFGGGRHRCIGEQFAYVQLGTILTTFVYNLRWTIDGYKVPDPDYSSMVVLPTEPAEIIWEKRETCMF

[7] = Acute toxicity in rat assessed as Low-observed adverse effect level at po administration; assay type: organism-based; details: in vivo
Pichia kudriavzevii = test: Antifungal activity against Candida krusei AS 2.1045 assessed as inhibition of fungal growth by CLSI protocol based microdilution method; assay type: functional
Candida albicans [8] = test: Antifungal activity against fluconazole-resistant Candida albicans 904 assessed as downregulation of MDR1 gene expression at 16 ug/ml incubated for 16 hrs by RT-PCR analysis; assay type: functional, organism-based; details: dose 16.0 µg/ml
[9] = molecular target: T1, Lanosterol 14-alpha demethylase; test: Inhibition of CYP51 in Candida albicans SC5314 assessed as increase in obtusifoliol level at 0.031 ug/ml incubated for 24 hrs by GC-MS analysis relative to control; details: at 0.031 µg/mL
Candida albicans [10] = test: Antifungal activity against fluconazole-resistant Candida albicans 904 assessed as downregulation of EFG1 gene expression at 16 ug/ml incubated for 12 hrs by RT-PCR analysis; assay type: functional, organism-based; details: dose 16.0 µg/ml
Candida albicans [11] = test: Antifungal activity against fluconazole-resistant Candida albicans 904 assessed as increase in intracellular ROS production at 32 ug/ml incubated for 4 hrs by DCFH-DA probe based fluorescence spectrophotometric analysis; assay type: functional, organism-based; details: dose 32.0 µg/ml
Candida albicans [12] = test: Antifungal activity against fluconazole-resistant Candida albicans 904 assessed as inhibition of fungal biofilm formation incubated for 24 hrs by XTT assay; assay type: functional, organism-based
Candida tropicalis = test: Antifungal activity against Candida tropicalis CGMCC 2.3739 assessed as inhibition of fungal growth by CLSI protocol based microdilution method; assay type: functional
[13] = Subacute toxicity in Kunming mouse assessed as behavioral change at 100 mg/kg,po administrated once daily for 14 days; assay type: organism-based; details: in vivo, 336 h, time 14 day
Candida albicans [14] = test: Antifungal activity against fluconazole-resistant Candida albicans 904 infected ICR mouse model assessed as median survival time at 10 mg/kg,ip administration for 14 days; assay type: functional; details: time 14 day
Candida albicans [15] = test: Fungicidal activity against fluconazole-resistant Candida albicans 904 assessed as reduction in colony forming units at 32 times MIC incubated for 24 hrs by time-kill curve assay; assay type: functional
[16] = Acute toxicity in Kunming mouse assessed as change in body weight at 1000 mg/kg,po administrated for 7 days; assay type: organism-based; details: in vivo, 168 h, time 7 day
[17] = Subacute toxicity in Kunming mouse assessed as animal death at 100 mg/kg,po administrated once daily for 14 days; assay type: organism-based; details: in vivo, 336 h, time 14 day
[18] = Acute toxicity in Kunming female mouse assessed as liver damage at 100 mg/kg,po administrated for 7 days by hematoxylin and eosin staining based microscopic analysis; assay type: organism-based; details: in vivo, 168 h, time 7 day
Candida albicans [19] = test: Antifungal activity against Candida albicans SC5314 assessed as fungal cell membrane injury at 16 ug/ml incubated for 24 hrs by transmission electron microscopic analysis; assay type: functional, organism-based; details: dose 16.0 µg/ml
[20] = AUC (0 to infinity) in Sprague-Dawley rat at 5 mg/kg,po by LC-MS/MS analysis; assay type: ADME, organism-based; details: in vivo
[21] = Half life in Sprague-Dawley rat at 2 mg/kg,iv by LC-MS/MS analysis; assay type: ADME, organism-based; details: in vivo
[22] = Volume of distribution at steady state in Sprague-Dawley rat at 2 mg/kg,iv by LC-MS/MS analysis; assay type: ADME, organism-based; details: in vivo, read-out: Vdss
[23] = Acute toxicity in Kunming male mouse assessed as kidney damage at 100 mg/kg,po administrated for 7 days by hematoxylin and eosin staining based microscopic analysis; assay type: organism-based; details: in vivo, 168 h, time 7 day
[24] = Tmax in Sprague-Dawley rat at 5 mg/kg,po by LC-MS/MS analysis; assay type: ADME, organism-based; details: in vivo
[25] = MRTinfinity in Sprague-Dawley rat at 2 mg/kg,iv by LC-MS/MS analysis; assay type: ADME, organism-based; details: in vivo
[26] = Half life in Sprague-Dawley rat at 5 mg/kg,po by LC-MS/MS analysis; assay type: ADME, organism-based; details: in vivo
Candida albicans [27] = test: Antifungal activity against Candida albicans SC5314 assessed as leakage of endogenous substances at 16 ug/ml incubated for 24 hrs by transmission electron microscopic analysis; assay type: functional, organism-based; details: dose 16.0 µg/ml
[28] = Acute toxicity in Kunming male mouse assessed as liver damage at 100 mg/kg,po administrated for 7 days by hematoxylin and eosin staining based microscopic analysis; assay type: organism-based; details: in vivo, 168 h, time 7 day
[29] = Clearance in Sprague-Dawley rat at 2 mg/kg,iv by LC-MS/MS analysis; assay type: ADME, organism-based; details: in vivo
Candida albicans [30] = test: Antifungal activity against fluconazole-resistant Candida albicans 904 infected ICR mouse model assessed as median survival time at 20 mg/kg,ip administration for 14 days; assay type: functional; details: time 14 day
[31] = Acute toxicity in Kunming mouse assessed as animal death at 1000 mg/kg,po administrated for 7 days; assay type: organism-based; details: in vivo, 168 h, time 7 day
Candida albicans [32] = test: Antifungal activity against fluconazole-resistant Candida albicans 904 infected ICR mouse model assessed as reduction in fungal burden in kidney at 10 to 20 mg/kg,ip administration for 5 days; assay type: functional, organism-based; details: dose 10-20 mg/kg, time 5.0 day
[33] = Acute toxicity in Kunming female mouse assessed as kidney damage at 100 mg/kg,po administrated for 7 days by hematoxylin and eosin staining based microscopic analysis; assay type: organism-based; details: in vivo, 168 h, time 7 day
[34] = MRTinfinity in Sprague-Dawley rat at 5 mg/kg,po by LC-MS/MS analysis; assay type: ADME, organism-based; details: in vivo
[35] = AUC (0 to infinity) in Sprague-Dawley rat at 2 mg/kg,iv by LC-MS/MS analysis; assay type: ADME, organism-based; details: in vivo
Candida albicans [36] = test: Antifungal activity against Candida albicans SC5314 infected ICR mouse model assessed as reduction in fungal burden in kidney at ip administration for 5 days; assay type: functional, organism-based; details: time 5.0 day
[37] = Acute toxicity in Kunming mouse assessed as behavioral change at 1000 mg/kg,po administrated for 7 days; assay type: organism-based; details: in vivo, 168 h, time 7 day
[38] = Oral bioavailability in Sprague-Dawley rat at 5 mg/kg by LC-MS/MS analysis; assay type: ADME, organism-based; details: in vivo
[39] = Acute toxicity in Kunming mouse assessed as increase in body weight at 100 mg/kg,po administrated once daily for 14 days; assay type: organism-based; details: in vivo, 336 h, time 14 day

## O=C(/C=C/c1ccc(COC(Cn2ccnc2)c2ccc(Cl)cc2Cl)cc1)Nc1ccc(Cl)cc1Cl (centres undefined)
Aspergillus fumigatus
  MIC: 0.5 µg/mL (≈ 0.891 µM)
Candida albicans [1]
  MIC: 1 µg/mL (≈ 1.78 µM)
[2]
  half-life: 0.493 h
Candida albicans [3]
  MIC: 0.06 µg/mL (≈ 0.107 µM)
Candida albicans [4]
  Activity: Active
J774.A1
  pIC50: 4.61
Candida albicans [5]
  MIC: 0.25 µg/mL (≈ 0.445 µM)
[6]
  inhibition (INH): 1.25%
[7]
  LOAEL: 0.452 mg/kg
Pichia kudriavzevii
  MIC: 0.5 µg/mL (≈ 0.891 µM)
Candida albicans [8]
  Activity: Active
[9]
  inhibition (INH): Active
Candida albicans [10]
  Activity: Active
Candida albicans [11]
  Activity: Active
Candida albicans [12]
  Activity: Dose-Dependent Effect
Candida tropicalis
  MIC: 2 µg/mL (≈ 3.56 µM)

## CCCCNC(=O)/C=C/c1ccc(COC(Cn2ccnc2)c2ccc(Cl)cc2Cl)cc1 (centres undefined)
[13]
  Activity: Non-Toxic
Candida albicans [14]
  MST: 10 days
Aspergillus fumigatus
  MIC: 0.5 µg/mL (≈ 1.06 µM)
Candida albicans [15]
  Activity: 2 log10CFU/ml
[16]
  Activity: Non-Toxic
[17]
  Activity: Non-Toxic
[18]
  Activity: Toxic
Candida albicans [19]
  Activity: Active
Candida albicans [1]
  MIC: 2 µg/mL (≈ 4.23 µM)
[2]
  half-life: 1 h
Candida albicans [3]
  MIC: 0.03 µg/mL (≈ 0.0635 µM)
[20]
  AUC(0-inf): 452 ng·h/mL
[21]
  half-life: 1.72 h
[22]
  Vd: 1.76 L/kg
Candida albicans [4]
  Activity: Active
[23]
  Activity: Toxic
[24]
  Tmax: 1 h
J774.A1
  pIC50: 4.53
Candida albicans [5]
  MIC: 0.25 µg/mL (≈ 0.529 µM)
[6]
  inhibition (INH): 0.67%
[25]
  MRT inf: 1.24 h
[26]
  half-life: 1.23 h
[7]
  LOAEL: 1.138 mg/kg
Candida albicans [27]
  Activity: Active
[28]
  Activity: Toxic
Pichia kudriavzevii
  MIC: 2 µg/mL (≈ 4.23 µM)
Candida albicans [8]
  Activity: Active
[9]
  inhibition (INH): Active
[29]
  clearance: 23.7 mL/min/kg
Candida albicans [10]
  Activity: Active
Candida albicans [11]
  Activity: Active
Candida albicans [30]
  MST: 13.52 days
[31]
  Activity: Non-Toxic
Candida albicans [12]
  Activity: Dose-Dependent Effect
Candida tropicalis
  MIC: 64 µg/mL (≈ 135 µM)
Candida albicans [32]
  Activity: Active
[33]
  Activity: Non-Toxic
[34]
  MRT inf: 1.93 h
[35]
  AUC(0-inf): 1410 ng·h/mL
Candida albicans [36]
  Activity: Dose-Dependent Effect
[37]
  Activity: Non-Toxic
[38]
  bioavailability: 12.8%
[39]
  Activity: Toxic
